Here are results for one molecule from PMC13401508 (Pharmacological research, 2026).

pIC50: −log10 of the molar value. Entries after “also recorded” stand apart in the source; their conditions may differ. Read-outs that look alike come from different tables or passages of the source. A value given as a limit tells only on which side of the number the result lay.

For data set [1], the target named is T1, CYP2E1 (Homo sapiens, UniProt P05181).
T1 construct: in the presence of human liver microsomes; from tissue; host or cells: human liver microsomes
T1 sequence (P05181 whole entry): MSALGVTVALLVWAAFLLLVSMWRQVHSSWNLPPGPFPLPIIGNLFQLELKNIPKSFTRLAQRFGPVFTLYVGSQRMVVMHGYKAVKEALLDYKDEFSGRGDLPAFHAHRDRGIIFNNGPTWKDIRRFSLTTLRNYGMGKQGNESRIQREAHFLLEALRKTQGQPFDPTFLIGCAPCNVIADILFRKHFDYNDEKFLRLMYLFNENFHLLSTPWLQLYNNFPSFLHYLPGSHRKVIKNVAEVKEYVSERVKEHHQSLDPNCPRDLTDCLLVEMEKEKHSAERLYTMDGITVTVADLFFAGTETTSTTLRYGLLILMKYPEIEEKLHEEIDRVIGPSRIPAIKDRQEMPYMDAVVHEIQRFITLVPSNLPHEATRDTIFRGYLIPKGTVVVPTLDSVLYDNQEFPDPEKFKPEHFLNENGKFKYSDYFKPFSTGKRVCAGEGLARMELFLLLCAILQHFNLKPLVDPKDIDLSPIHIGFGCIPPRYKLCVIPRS
The data set can be described thus: Drug-substrate based CYP inhibition, 2E1. The data set is classed as in vitro ADME. Conditions: human liver microsomes. How it is done:
IVMT-Rx-4 was incubated with selective probe substrates of each CYP isoform in the presence of human liver microsomes. The formation of metabolite was quantified using LC-MS/MS methods. The extent of inhibition was assessed by calculating the remaining enzyme activity and percent inhibition based on analyte-to-internal standard area ratios, using the following equations:
Area Ratio = Peak AreaAnalyte / Peak AreaInternal Standard
Remaining Activity (%) = Area Ratiotest compound / Area Ratiovehicle ×100
Inhibition (%) = 100 ̶ Remaining Activity (%)
A general note: Liver microsomes are a subcellular fraction often used to study metabolism.

Data set [2] deals with T2, CYP3A4 (Homo sapiens, UniProt P08684).
T2 construct: in the presence of human liver microsomes; from tissue; host or cells: human liver microsomes
T2 sequence (P08684 whole entry): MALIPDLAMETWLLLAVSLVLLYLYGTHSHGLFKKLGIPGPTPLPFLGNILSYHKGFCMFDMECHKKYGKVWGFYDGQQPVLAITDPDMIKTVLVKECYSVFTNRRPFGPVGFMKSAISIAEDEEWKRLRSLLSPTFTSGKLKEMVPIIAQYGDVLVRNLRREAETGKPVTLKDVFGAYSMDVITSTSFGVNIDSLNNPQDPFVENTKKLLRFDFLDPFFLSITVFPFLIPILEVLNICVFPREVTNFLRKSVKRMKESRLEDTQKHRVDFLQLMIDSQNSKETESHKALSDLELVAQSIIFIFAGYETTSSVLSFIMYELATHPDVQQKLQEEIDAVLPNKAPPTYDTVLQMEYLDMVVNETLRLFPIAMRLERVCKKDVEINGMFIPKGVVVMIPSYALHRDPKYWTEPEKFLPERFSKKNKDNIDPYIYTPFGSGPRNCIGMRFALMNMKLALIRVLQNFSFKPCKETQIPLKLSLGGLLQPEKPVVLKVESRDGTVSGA
The data set can be described thus: Time dependent CYP inhibition (TDI). Conditions: human liver microsomes, with or without NADPH. It counts as in vitro ADME. How it is done: Then, the specific CYP3A4 substrate was added, and aliquots were collected at various time points. Samples were then diluted with ultra-pure water and analyzed by LC-MS/MS. Area ratio and remaining Activity (%) were calculated as above and IC50 values was calculated using Excel XLfit 5.3.1.3.

Data set [3] deals with T3, PXR (Homo sapiens, UniProt O75469).
T3 construct: expressed in transfected cells; host or cells: DPX2 cells
T3 sequence (O75469 1-434): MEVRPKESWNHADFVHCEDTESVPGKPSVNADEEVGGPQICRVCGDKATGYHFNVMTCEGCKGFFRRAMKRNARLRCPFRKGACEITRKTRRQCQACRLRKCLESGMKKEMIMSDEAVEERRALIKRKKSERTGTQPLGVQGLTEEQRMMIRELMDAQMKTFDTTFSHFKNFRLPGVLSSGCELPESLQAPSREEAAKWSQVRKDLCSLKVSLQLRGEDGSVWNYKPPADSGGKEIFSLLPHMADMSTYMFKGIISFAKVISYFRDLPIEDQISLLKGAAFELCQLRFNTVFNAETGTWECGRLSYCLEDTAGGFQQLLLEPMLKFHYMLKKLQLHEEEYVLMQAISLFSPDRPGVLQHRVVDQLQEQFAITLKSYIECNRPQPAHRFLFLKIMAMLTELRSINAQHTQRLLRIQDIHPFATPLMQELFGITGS
The data set can be described thus: PXR assay using DPX2 cells. It counts as cell-based. How it is done: DPX2 cells were initially cultured in T-75 flasks and maintained at 37°C in a humidified incubator with 5% CO2 and 95% relative humidity. Cells were allowed to reach 70-80% confluence prior to subculture. Next, cells were transferred to a culture plate and incubated for an additional 24 hours to allow for attachment and recovery prior to treatment. […] Cell viability and luciferase activity were measured using the CellTiter-Fluor™ Cell Viability Assay and One-GloTM Luciferase Assay System, respectively. Luciferase activity was normalized to viable number and fold activation of PXR was calculated using the following equation: […]

A short description of data set [4]: Pharmacokinetic studies, single dose IV, PO, SC, IP. The data set is classed as in vivo, CD1 mice. As for the experimental part: CD1 mice were randomly grouped to 4 groups (n=3 per group). […] Further, 20-µL blood samples were collected from a capillary in the retro-orbital plexus at pre-determined time intervals, placed into heparinized tubes, and immediately centrifuged (2500 × g, 15 min, 4 °C). The plasma was separated and kept frozen at −80 °C until analysis.
Then the samples were vortexed for 30 s. After centrifugation at 4000 rpm for 15 min at 4 °C, the supernatant was diluted 3 times with water.5 µL of the diluted supernatant was injected into the Shimadzu LC/MS/MS system with a Phenomenex Kinetex C18 column (2.1 mm × 50 mm, 5 µm, 100 Å ). The samples were chromatographed using a gradient mobile phase consisting of 95% water (0.1% formic acid)– 95% acetonitrile (0.1% formic acid), delivered at a flow rate of 0.6 mL/min.

The nature of data set [5]: Dynamic vapor sorption (DVS). It counts as physicochemical. The note with it: for moisture adsorption: 25°C. As for the experimental part:
Hygroscopicity and moisture absorption of IVMT-Rx-4 were assessed using dynamic vapor sorption on a DVS instrument (SMS, DVS Intrinsic). Samples 20.4 mg in size were first treated at 25°C for several hours while under nitrogen flow. They were then treated with water vapor at various partial pressures with relative humidities which ranged from 0 to 90% at 25°C.

The subject of data set [6] is NF-κB p65. The data set can be described thus: NF-κB p65 transcription factor activation assay. Conditions: PC3-ML, ARCaP-M and C4–2B cells, 24 hrs, vs vehicle. The data set is classed as cell-based, human. As for the experimental part:
NF-κB p65 transcription factor assay kits were obtained from Cayman Chemical, USA and performed following the manufacturer’s instructions.
Fig. 2. […] NF-κB activity was measured by absorbance at 450 nm (n = 3 ± SD; * p < 0.05). […] C) PDGF-AA protein levels were determined in the three PC cell line-derived conditioned media by ELISA. In both panels: n = 3 ± SD; * p < 0.05.

The test system of data set [7] is PDGFRα. The data set can be described thus: Western blot, PDGF-AA activated HS5 cells: PDGFRα. The data set is classed as cell-based, human. Conditions: PDGF-AA 10 ng/ML, 25 μM, 24 hrs. (In general: Immunoblotting shows a protein as a band on a membrane.)
Data set [8] concerns MST. The data set can be described thus: Western blot, PDGF-AA activated HS5 cells: MST. The data set is classed as cell-based, human. Conditions: PDGF-AA 10 ng/ML, 25 μM, 24 hrs.
For data set [9], the system named is PC3-ML-Luc cells. The data set can be described thus: Combination and survival study, PC3-ML-Luc model. It counts as in vivo. The note with it: PC3-ML-Luc in athymic nude mice, day 14, IVMT-Rx-4 30 mg/kg and/or Docetaxel 5 mg/kg 3X a week for two weeks. As for the experimental part: Both syngeneic (C57BL/6) and athymic nude mice were used for survival studies. Tumor cells (RM1-BM-Luc or PC3-ML-Luc) were injected intracardially in a cohort of 40 animals. […] In the combination groups, both regimens were administered 3X a week for two-weeks at the same dose as a single therapy. Animals were imaged periodically and maintained until euthanization was required.
Fig. 5. […] A and B) RM1-BM-Luc (A) or PC3-ML-Luc (B) cells were implanted I.C. in C57BL/6 and athymic nude mice, respectively. […] BLI images were used to detect bone metastases (the percentage incidence of bone metastases in animals was calculated at a single time point, day 14). Values are presented at the bottom panel of the respective group (red, number of animals positive for metastasis and black, total number of experimental animals). C and D) Animals were kept until mandated euthanasia based on IACUC guidelines, considered as disease associated death. The Kaplan–Meier survival curves were generated using GraphPad in both models as described in (A) and (B), respectively. E and F) Log-rank test was performed and values between different experimental groups are presented.

The molecule `Cc1cc(NC(=O)CCc2nnc(-c3ccccc3)o2)c(C)cc1N` [IVMT-Rx-4] showed a negative logarithm of the IC50 (pIC50) in data set [1] of around 5.10. Besides, in data set [2], the “Time-dependent inhibition (TDI), CYP3A4” value is “no time-dependent inhibition; also recorded: No TDI”. In data set [3], the PXR assay result is “No induction”. Besides, the time to peak (Tmax) in data set [4] (CD1, mouse, plasma, 10 mg/kg, all non-intravenous routes) is at most 30 min. Also, the half-life is 61.2 min in data set [4] (CD1, mouse, plasma, ip, 10 mg/kg, IP 10 mg/kg, read-out: Plasma half-life (converted)); 27 min in [4] (CD1, mouse, plasma, iv, 3 mg/kg, IV 3 mg/kg, mean of 3 mice, read-out: T1/2 (plasma half-life) (converted)); 82.2 min in data set [4] (CD1, mouse, plasma, po, 10 mg/kg, PO 10 mg/kg, read-out: Plasma half-life (converted)); 41.4 min in [4] (CD1, mouse, plasma, sc, 10 mg/kg, SC 10 mg/kg, read-out: Plasma half-life (converted)). Further, the results for the “Maximum plasma concentration (Cmax)” value in [4] (IP 10 mg/kg), in [4] (PO 10 mg/kg) and in data set [4] (SC 10 mg/kg) were 1012 ng/mL, 2047 ng/mL and 1017 ng/mL, respectively. In addition, the results for the “time to reach Cmax (Tmax)” value in data set [4] (IP 10 mg/kg), in data set [4] (PO 10 mg/kg) and in data set [4] (SC 10 mg/kg) were 15 min, 15 min and 30 min, respectively. For the same molecule, the “time after which plasma levels became undetectable” value in data set [4] (IV 3 mg/kg) came to 4 h; in data set [4] (PO, SC and IP routes, 10 mg/kg), 8 h. For the same molecule, the figures for the moisture adsorption in [5] (80% RH) and in data set [5] (90% RH) were 0.98% and 1.06%, respectively. Also, in data set [5] (DVS), the hygroscopicity result is on record as “slightly hygroscopic”. The NF-κB activity result in data set [6] was “decreased NF-κB activity”. Also, the “PDGFRα activation (phosphorylated PDGFRα)” value in [7] was “downregulation of phosphorylated PDGFRα”. For the same molecule, the “phosphorylation of MST” value in data set [8] is given as “promoted the phosphorylation of MST”. For the same molecule, the “bone metastases, Incident/Total number tested” value in data set [9] was 1/8.

The pIC50 is −log10 of the IC50, conventionally taken in molar units. For orientation: Tmax means the time from dosing to the highest level.
